Experimental data reported in patent US11969428B2, “Methods and pharmaceutical compositions for treating lymphoid malignancy” (priority 2011, dated 2024).

Legend:
Test in all cases: Ambit KinomeScan screening
Type in all cases: binding
Settings in all cases: CAL-130 10 μM
CSF1R = biological target: T1, CSF1R (Homo sapiens, UniProt P07333)
T1 construct: purchased Ambit (KinomeScan screening service)
In short: (§1)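 Single-concentration profiling (10 μM CAL-130) measured displacement of tagged kinases from an immobilized bait ligand. Percent-of-control binding was reported; smaller values denote stronger interaction.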

CAMK2G = biological target: T2, CAMK2G (Homo sapiens, UniProt Q13555)
T2 construct: purchased Ambit (KinomeScan screening)
In short: as §1

ABL2 = biological target: T3, ABL2 (Homo sapiens, UniProt P42684)
T3 construct: unspecified tag ("tagged kinases"); purchased Ambit (KinomeScan screening)
In short: as §1

ROS1 = biological target: T4, ROS1 (Homo sapiens, UniProt P08922)
T4 construct: unspecified tag (tagged kinase); purchased Ambit (KinomeScan screening)
In short: as §1

QSK = biological target: T5, QSK (Homo sapiens, UniProt Q9Y2K2)
T5 construct: tag (kind not specified); purchased Ambit (KinomeScan screening service)
In short: as §1

CSNK2A1 = biological target: T6, CSNK2A1 (Homo sapiens, UniProt P68400)
T6 construct: purchased Ambit (KinomeScan screening service)
In short: as §1

VEGFR2 = biological target: T7, VEGFR2 (Homo sapiens, UniProt P35968)
T7 construct: tag, kind not specified; purchased Ambit (KinomeScan screening service)
In short: as §1

MAST1 = biological target: T8, MAST1 (Homo sapiens, UniProt Q9Y2H9)
T8 construct: purchased Ambit (KinomeScan screening)
In short: as §1

PCTK3 = biological target: T9, PCTK3 (Homo sapiens, UniProt Q07002)
T9 construct: unspecified tag ('tagged kinases'); purchased Ambit (KinomeScan screening)
In short: as §1

PFTK1 = biological target: T10, PFTK1 (Homo sapiens, UniProt O94921)
T10 construct: unspecified tag ('tagged kinases'); purchased Ambit (KinomeScan screening)
In short: as §1

LIMK1 = biological target: T11, LIMK1 (Homo sapiens, UniProt P53667)
T11 construct: unspecified tag ('tagged kinases'); purchased Ambit (KinomeScan screening service)
In short: as §1

NIM1 = biological target: T12, NIM1 (Homo sapiens, UniProt Q8IY84)
T12 construct: purchased Ambit (KinomeScan screening service)
In short: as §1

GRK7 = biological target: T13, GRK7 (Homo sapiens, UniProt Q8WTQ7)
T13 construct: unspecified tag ('tagged kinases'); purchased Ambit (KinomeScan screening service)
In short: as §1

SRMS = biological target: T14, SRMS (Homo sapiens, UniProt Q9H3Y6)
T14 construct: tag, kind not specified; purchased Ambit (KinomeScan screening service)
In short: as §1

p38-β = biological target: T15, p38-β (Homo sapiens, UniProt Q15759)
T15 construct: purchased Ambit (KinomeScan screening service)
In short: as §1

ERK3 = biological target: T16, ERK3 (Homo sapiens, UniProt Q16659)
T16 construct: unspecified tag ("tagged kinases"); purchased Ambit (KinomeScan screening service)
In short: as §1

HIPK2 = biological target: T17, HIPK2 (Homo sapiens, UniProt Q9H2X6)
T17 construct: unspecified tag ('tagged kinases'); purchased Ambit (KinomeScan screening service)
In short: as §1

EPHA8 = biological target: T18, EPHA8 (Homo sapiens, UniProt P29322)
T18 construct: purchased Ambit (KinomeScan screening service)
In short: as §1

MST3 = biological target: T19, MST3 (Homo sapiens, UniProt Q9Y6E0)
T19 construct: unspecified tag; purchased Ambit (KinomeScan screening panel)
In short: as §1

LYN = biological target: T20, LYN (Homo sapiens, UniProt P07948)
T20 construct: unspecified tag ('tagged kinases'); purchased Ambit (KinomeScan screening service)
In short: as §1

DCAMKL2 = biological target: T21, DCAMKL2 (Homo sapiens, UniProt Q8N568)
T21 construct: unspecified tag ("tagged kinases"); purchased Ambit (KinomeScan screening service)
In short: as §1

MYO3A = biological target: T22, MYO3A (Homo sapiens, UniProt Q8NEV4)
T22 construct: unspecified tag; purchased Ambit (KinomeScan screening panel)
In short: as §1

CSNK2A2 = biological target: T23, CSNK2A2 (Homo sapiens, UniProt P19784)
T23 construct: purchased Ambit (KinomeScan screening service)
In short: as §1

TRKA = biological target: T24, TRKA (Homo sapiens, UniProt P04629)
T24 construct: unspecified tag (tagged kinase); purchased Ambit (KinomeScan screening)
In short: as §1

ERBB2 = biological target: T25, ERBB2 (Homo sapiens, UniProt P04626)
T25 construct: purchased Ambit (KinomeScan screening service)
In short: as §1

RAF1 = biological target: T26, RAF1 (Homo sapiens, UniProt P04049)
T26 construct: tag (kind not specified); purchased Ambit (KinomeScan screening service)
In short: as §1

[1] = biological target: T27, EGFR(L747-E749DEL, A750P) (Homo sapiens, UniProt P00533, A750P/DEL747-749)
T27 construct: unspecified tag; purchased Ambit (KinomeScan screening service)
In short: as §1

FLT4 = biological target: T28, FLT4 (Homo sapiens, UniProt P35916)
T28 construct: unspecified tag ('tagged kinases'); purchased Ambit (KinomeScan screening service)
In short: as §1

GRK4 = biological target: T29, GRK4 (Homo sapiens, UniProt P32298)
T29 construct: unspecified tag ('tagged kinases'); purchased Ambit (KinomeScan screening service)
In short: as §1

MUSK = biological target: T30, MUSK (Homo sapiens, UniProt O15146)
T30 construct: unspecified tag; purchased Ambit (KinomeScan screening panel)
In short: as §1

TESK1 = biological target: T31, TESK1 (Homo sapiens, UniProt Q15569)
T31 construct: unspecified tag (tagged kinase); purchased Ambit (KinomeScan screening)
In short: as §1

SIK = biological target: T32, SIK (Homo sapiens, UniProt P57059)
T32 construct: tag, kind not specified; purchased Ambit (KinomeScan screening service)
In short: as §1

ERK5 = biological target: T33, ERK5 (Homo sapiens, UniProt Q13164)
T33 construct: unspecified tag ("tagged kinases"); purchased Ambit (KinomeScan screening service)
In short: as §1

ARK5 = biological target: T34, ARK5 (Homo sapiens, UniProt O60285)
T34 construct: purchased Ambit (KinomeScan screening service)
In short: as §1

WEE2 = biological target: T35, WEE2 (Homo sapiens, UniProt P0C1S8)
T35 construct: purchased Ambit (KinomeScan screening service)
In short: as §1

CSNK1G2 = biological target: T36, CSNK1G2 (Homo sapiens, UniProt P78368)
T36 construct: purchased Ambit (KinomeScan screening service)
In short: as §1

Measured: Percent of Control Binding

T13 sequence (Q8WTQ7 whole entry): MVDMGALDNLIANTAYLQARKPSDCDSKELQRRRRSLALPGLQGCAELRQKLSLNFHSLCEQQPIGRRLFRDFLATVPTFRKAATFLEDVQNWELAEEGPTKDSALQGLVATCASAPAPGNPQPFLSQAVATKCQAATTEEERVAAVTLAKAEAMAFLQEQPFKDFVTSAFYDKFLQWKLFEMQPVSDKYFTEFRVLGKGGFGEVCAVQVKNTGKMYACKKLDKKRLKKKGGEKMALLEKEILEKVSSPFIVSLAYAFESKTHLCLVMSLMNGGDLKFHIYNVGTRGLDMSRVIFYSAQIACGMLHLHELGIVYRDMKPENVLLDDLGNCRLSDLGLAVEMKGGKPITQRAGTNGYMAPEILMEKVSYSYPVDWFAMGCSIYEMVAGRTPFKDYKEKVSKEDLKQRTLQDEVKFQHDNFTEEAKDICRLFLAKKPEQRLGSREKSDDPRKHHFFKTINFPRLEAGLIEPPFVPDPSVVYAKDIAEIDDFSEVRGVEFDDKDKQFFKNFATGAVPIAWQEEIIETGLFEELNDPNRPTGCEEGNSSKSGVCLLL
T19 sequence (Q9Y6E0 whole entry): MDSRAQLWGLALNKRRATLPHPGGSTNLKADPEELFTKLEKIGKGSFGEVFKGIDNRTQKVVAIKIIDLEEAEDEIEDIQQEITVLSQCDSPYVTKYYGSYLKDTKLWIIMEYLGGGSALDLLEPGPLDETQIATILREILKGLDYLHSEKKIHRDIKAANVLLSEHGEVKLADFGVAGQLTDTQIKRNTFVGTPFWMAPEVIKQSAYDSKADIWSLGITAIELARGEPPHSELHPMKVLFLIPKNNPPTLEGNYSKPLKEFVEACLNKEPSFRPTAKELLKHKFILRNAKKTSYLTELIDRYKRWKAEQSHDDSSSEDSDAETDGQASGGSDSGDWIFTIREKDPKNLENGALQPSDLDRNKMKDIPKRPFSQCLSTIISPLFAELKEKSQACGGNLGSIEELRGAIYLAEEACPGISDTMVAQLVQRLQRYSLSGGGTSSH
T32 sequence (P57059 whole entry): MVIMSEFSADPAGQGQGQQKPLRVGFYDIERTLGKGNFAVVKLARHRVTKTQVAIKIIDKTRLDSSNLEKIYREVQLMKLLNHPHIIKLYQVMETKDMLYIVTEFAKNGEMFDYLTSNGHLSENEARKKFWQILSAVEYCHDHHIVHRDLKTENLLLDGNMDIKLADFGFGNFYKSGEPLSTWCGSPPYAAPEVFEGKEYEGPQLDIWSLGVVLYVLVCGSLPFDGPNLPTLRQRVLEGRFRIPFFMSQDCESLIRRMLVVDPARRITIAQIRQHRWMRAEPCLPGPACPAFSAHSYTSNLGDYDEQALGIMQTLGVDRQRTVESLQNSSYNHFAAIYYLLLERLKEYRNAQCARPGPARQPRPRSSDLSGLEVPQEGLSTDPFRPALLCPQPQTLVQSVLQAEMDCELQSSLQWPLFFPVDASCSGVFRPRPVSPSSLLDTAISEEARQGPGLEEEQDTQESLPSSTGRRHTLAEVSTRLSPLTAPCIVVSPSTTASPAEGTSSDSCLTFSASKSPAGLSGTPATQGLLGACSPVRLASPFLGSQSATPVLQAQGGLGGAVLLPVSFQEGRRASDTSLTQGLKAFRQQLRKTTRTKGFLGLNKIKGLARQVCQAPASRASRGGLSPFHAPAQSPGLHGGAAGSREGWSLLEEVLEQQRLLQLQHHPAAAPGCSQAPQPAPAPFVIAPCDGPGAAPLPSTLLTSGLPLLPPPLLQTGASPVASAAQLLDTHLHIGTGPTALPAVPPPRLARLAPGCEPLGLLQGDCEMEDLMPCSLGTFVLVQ
T24 sequence (P04629 33-796): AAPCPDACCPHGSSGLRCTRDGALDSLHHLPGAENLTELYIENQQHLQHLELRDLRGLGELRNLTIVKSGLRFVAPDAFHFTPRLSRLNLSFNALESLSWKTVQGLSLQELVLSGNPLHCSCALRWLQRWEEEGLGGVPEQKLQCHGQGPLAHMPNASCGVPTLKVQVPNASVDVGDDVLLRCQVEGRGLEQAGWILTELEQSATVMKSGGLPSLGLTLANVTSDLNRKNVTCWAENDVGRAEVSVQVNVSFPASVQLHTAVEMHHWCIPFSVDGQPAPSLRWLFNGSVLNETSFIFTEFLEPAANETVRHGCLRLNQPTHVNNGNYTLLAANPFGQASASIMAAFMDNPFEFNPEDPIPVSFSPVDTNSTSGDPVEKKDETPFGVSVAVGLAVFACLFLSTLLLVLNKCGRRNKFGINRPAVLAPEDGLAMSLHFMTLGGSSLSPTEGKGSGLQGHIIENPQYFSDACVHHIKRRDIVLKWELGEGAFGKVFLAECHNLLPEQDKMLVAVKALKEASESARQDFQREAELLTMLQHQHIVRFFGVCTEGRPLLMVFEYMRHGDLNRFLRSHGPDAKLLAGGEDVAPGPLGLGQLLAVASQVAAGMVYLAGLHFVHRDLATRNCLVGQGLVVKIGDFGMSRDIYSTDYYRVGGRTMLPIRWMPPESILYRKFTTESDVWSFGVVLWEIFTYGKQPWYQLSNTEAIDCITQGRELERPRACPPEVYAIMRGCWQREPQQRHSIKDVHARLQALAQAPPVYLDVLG
T30 sequence (O15146 24-869): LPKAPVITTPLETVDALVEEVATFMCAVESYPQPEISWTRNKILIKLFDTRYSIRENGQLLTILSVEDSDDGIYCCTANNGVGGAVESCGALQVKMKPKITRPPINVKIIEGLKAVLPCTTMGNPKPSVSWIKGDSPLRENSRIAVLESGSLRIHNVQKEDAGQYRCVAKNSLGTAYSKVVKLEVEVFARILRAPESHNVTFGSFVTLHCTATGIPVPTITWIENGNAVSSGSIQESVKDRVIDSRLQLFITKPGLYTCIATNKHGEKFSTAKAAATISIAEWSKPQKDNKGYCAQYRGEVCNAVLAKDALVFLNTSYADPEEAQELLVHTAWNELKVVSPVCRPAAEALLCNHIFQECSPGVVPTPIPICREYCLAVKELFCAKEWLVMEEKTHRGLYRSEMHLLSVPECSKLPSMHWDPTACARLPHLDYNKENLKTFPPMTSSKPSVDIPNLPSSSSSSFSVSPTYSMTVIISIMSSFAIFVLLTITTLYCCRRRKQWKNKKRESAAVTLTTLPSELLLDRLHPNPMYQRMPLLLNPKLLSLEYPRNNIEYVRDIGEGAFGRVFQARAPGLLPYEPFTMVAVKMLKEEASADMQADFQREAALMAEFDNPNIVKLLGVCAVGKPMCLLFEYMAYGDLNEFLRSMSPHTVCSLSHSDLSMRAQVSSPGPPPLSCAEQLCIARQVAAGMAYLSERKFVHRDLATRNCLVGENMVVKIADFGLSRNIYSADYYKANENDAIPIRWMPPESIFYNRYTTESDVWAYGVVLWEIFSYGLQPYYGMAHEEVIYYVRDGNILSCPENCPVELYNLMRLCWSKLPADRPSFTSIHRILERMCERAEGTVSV
T21 sequence (Q8N568 whole entry): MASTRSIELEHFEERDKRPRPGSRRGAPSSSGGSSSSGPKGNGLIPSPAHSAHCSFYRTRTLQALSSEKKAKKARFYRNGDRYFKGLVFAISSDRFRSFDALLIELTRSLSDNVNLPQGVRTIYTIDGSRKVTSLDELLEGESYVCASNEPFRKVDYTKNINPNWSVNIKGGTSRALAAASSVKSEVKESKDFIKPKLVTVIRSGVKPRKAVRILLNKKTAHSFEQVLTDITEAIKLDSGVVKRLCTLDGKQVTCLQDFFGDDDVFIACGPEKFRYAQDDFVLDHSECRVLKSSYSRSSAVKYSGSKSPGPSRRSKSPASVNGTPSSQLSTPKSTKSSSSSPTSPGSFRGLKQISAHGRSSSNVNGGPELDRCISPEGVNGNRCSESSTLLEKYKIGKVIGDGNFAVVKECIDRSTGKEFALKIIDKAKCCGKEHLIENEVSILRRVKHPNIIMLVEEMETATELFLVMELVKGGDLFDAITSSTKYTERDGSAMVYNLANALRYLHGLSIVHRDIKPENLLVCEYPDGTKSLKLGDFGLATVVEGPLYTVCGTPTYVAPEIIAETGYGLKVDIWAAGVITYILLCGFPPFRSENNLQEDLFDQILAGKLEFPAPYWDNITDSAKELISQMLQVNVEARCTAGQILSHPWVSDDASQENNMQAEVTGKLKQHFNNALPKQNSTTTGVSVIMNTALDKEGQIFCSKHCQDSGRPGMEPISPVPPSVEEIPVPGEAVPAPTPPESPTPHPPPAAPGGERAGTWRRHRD
T10 sequence (O94921 whole entry): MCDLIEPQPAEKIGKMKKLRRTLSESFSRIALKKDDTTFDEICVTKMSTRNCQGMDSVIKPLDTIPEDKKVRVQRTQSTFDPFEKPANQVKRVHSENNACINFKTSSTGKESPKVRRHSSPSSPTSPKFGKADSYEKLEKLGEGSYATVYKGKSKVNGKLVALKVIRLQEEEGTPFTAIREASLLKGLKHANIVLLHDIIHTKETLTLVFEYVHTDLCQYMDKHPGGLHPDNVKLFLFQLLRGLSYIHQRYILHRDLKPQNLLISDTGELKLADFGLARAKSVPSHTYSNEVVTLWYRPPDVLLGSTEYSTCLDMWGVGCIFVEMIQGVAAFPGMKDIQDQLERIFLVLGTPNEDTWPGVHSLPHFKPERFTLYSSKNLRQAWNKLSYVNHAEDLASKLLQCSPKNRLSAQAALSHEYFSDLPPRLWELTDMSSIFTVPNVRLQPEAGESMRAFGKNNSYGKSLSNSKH
T23 sequence (P19784 whole entry): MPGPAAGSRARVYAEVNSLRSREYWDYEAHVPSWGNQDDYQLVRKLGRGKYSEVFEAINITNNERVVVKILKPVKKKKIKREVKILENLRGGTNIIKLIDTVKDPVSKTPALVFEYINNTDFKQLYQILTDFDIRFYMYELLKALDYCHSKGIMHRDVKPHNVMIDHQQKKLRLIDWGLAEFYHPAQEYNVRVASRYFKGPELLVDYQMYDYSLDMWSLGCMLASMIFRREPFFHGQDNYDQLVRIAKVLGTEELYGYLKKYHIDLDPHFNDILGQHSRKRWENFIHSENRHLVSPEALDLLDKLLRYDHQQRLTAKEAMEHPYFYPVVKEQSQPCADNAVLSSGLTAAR

Cc1ccccc1-n1c(C(C)Nc2nc(N)nc3nc[nH]c23)nc2cccc(C)c2c1=O (stereo not drawn) [CAL-130]
100%: all assays above
